Source: patent US12263172B2, “Toll-like receptor agonists for use in the treatment of hepatitis b” (priority 2019, dated 2025)
Where “and” joins values, the source holds several entries; their conditions need not be identical. Identical values can stand only once. Entries after “also recorded” stand apart in the source; their conditions may differ.

Assay: Phase 1 single-ascending dose (Part 1): safety and tolerability in healthy adults
Assay type: in vivo, human
Experimental: This ongoing trial is a Phase 1 randomized, double-blind, placebo-controlled study in male and female healthy adult volunteers aged 18-55 years. All volunteers provided written, informed consent.
All volunteers were followed up for 4 weeks and safety and tolerability were continuously assessed throughout the study. All adverse events (AEs) were recorded from the time of consent to the completion visit and were graded using the DAIDS toxicity grading scale. Volunteers also underwent physical examinations, electrocardiograms, vital sign checks and clinical laboratory parameters (chemistry, haematology, urinalysis).

SMILES: CCCCOc1nc(N)c2[nH]cc(Cc3ccc(CN4CCCC4)cc3)c2n1 [Compound 4]
- vital signs: Supine SBP (mmHg) Grade 1 (single dose 1.25 mg fed): 0 n (%)
- vital signs: Supine SBP (mmHg) Grade 2 (single dose 1.25 mg fed): 0 n (%)
- vital signs: Supine SBP (mmHg) Low (single dose 1.25 mg fed): 0 n (%)
- vital signs: Supine pulse (bpm) Low (single dose 1.25 mg fed): 0 n (%)
- ↑ AST Grade 3 (laboratory abnormality) (single dose 1.25 mg fed): 0 n (%)
- ↑ Amylase Grade 2 (laboratory abnormality) (single dose 1.25 mg fed): 0 n (%)
- ↑ Cholesterol Grade 2 (laboratory abnormality) (single dose 1.25 mg fed): 1 (14) n (%)
- ↑ Creatine kinase Grade 2 (laboratory abnormality) (single dose 1.25 mg fed): 0 n (%)
- ↑ Creatine kinase Grade 4 (laboratory abnormality) (single dose 1.25 mg fed): 0 n (%)
- ↑ Glucose Grade 2 (laboratory abnormality) (single dose 1.25 mg fed): 0 n (%)
- ↑ LDL cholesterol Grade 2 (laboratory abnormality) (single dose 1.25 mg fed): 1 (14) n (%)
- ↑ LDL cholesterol Grade 3 (laboratory abnormality) (single dose 1.25 mg fed): 0 n (%)
- ↑ Lipase Grade 2 (laboratory abnormality) (single dose 1.25 mg fed): 0 n (%)
- ↑ Pancreatic amylase Grade 2 (laboratory abnormality) (single dose 1.25 mg fed): 0 n (%)
- ↑ Potassium Grade 2 (laboratory abnormality) (single dose 1.25 mg fed): 0 n (%)
- ↑ Sodium Grade 2 (laboratory abnormality) (single dose 1.25 mg fed): 0 n (%)
- ↑ Triglycerides Grade 2 (laboratory abnormality) (single dose 1.25 mg fed): 1 (14) n (%)
- ↑ Triglycerides Grade 3 (laboratory abnormality) (single dose 1.25 mg fed): 0 n (%)
- ↓ Bicarbonate Grade 2 (laboratory abnormality) (single dose 1.25 mg fed): 0 n (%)
- ↓ GFR Grade 2 (laboratory abnormality) (single dose 1.25 mg fed): 0 n (%)
- ↓ Lymphocytes Grade 2 (laboratory abnormality) (single dose 1.25 mg fed): 0 n (%)
- ↓ Lymphocytes Grade 4 (laboratory abnormality) (single dose 1.25 mg fed): 0 n (%)
- ↓ Neutrophils Grade 2 (laboratory abnormality) (single dose 1.25 mg fed): 0 n (%)
- ↓ Phosphate Grade 2 (laboratory abnormality) (single dose 1.25 mg fed): 1 (14) n (%)
- subjects with Grade 2 treatment-related AEs (pyrexia, headache and hypertension) (single dose 1.8 mg): 2 (33.3%) n (%)
- subjects with contact dermatitis (AE) (single dose 1.8 mg): 3 (50.0%) n (%)
- subjects with grade 1 increase in temperature around 12 hours after dosing (single dose 1.8 mg): Two
- Any AE (treatment-emergent) (single dose 1.8 mg fasted): 5 (83) n (%)
- Back pain Grade 1 (treatment-emergent AE) (single dose 1.8 mg fasted): 2 (33) n (%)
- Chills Grade 1 (treatment-emergent AE) (single dose 1.8 mg fasted): 2 (33) n (%)
- Contact dermatitis Grade 1 (treatment-emergent AE) (single dose 1.8 mg fasted): 3 (50) n (%)
- Dizziness Grade 1 (treatment-emergent AE) (single dose 1.8 mg fasted): 2 (33) n (%)
- ECG actual value: Heart rate (bpm) Low (single dose 1.8 mg fasted): 0 n (%)
- ECG actual value: QRS (ms) High (single dose 1.8 mg fasted): 0 n (%)
- ECG actual value: QTcB (ms) ]450; 480] (single dose 1.8 mg fasted): 0 n (%)
- ECG actual value: QTcF (ms) ]450; 480] (single dose 1.8 mg fasted): 0 n (%)
- ECG change from reference: QTcB (ms) [30; 60] (single dose 1.8 mg fasted): 1 (16.7%) n (%)
- ECG change from reference: QTcF (ms) [30; 60] (single dose 1.8 mg fasted): 0 n (%)
- Headache Grade 1 (treatment-emergent AE) (single dose 1.8 mg fasted): 0 n (%)
- Headache Grade 2 (treatment-emergent AE) (single dose 1.8 mg fasted): 1 (17) n (%)
- Hypertension Grade 1 (treatment-emergent AE) (single dose 1.8 mg fasted): 1 (17) n (%)
- Hypertension Grade 2 (treatment-emergent AE) (single dose 1.8 mg fasted): 1 (17) n (%)
- Myalgia Grade 1 (treatment-emergent AE) (single dose 1.8 mg fasted): 1 (17) n (%)
- Oropharyngeal pain Grade 1 (treatment-emergent AE) (single dose 1.8 mg fasted): 1 (17) n (%)
- Pyrexia Grade 1 (treatment-emergent AE) (single dose 1.8 mg fasted): 1 (17) n (%)
- Pyrexia Grade 2 (treatment-emergent AE) (single dose 1.8 mg fasted): 1 (17) n (%)
- URTI Grade 1 (treatment-emergent AE) (single dose 1.8 mg fasted): 1 (17) n (%)
- lab toxicity: Amylase (U/L), upwards, Grade 1 (single dose 1.8 mg fasted): 1 (16.7%) n (%)
- lab toxicity: Amylase (U/L), upwards, Grade 2 (single dose 1.8 mg fasted): 0 n (%)
- lab toxicity: Cholesterol (mmol/L), upwards, Grade 1 (single dose 1.8 mg fasted): 1 (16.7%) n (%)
- lab toxicity: Cholesterol (mmol/L), upwards, Grade 2 (single dose 1.8 mg fasted): 0 n (%)
- lab toxicity: Creatine kinase (U/L), upwards, Grade 1 (single dose 1.8 mg fasted): 0 n (%)
- lab toxicity: Creatine kinase (U/L), upwards, Grade 2 (single dose 1.8 mg fasted): 1 (16.7%) n (%)
- lab toxicity: Creatine kinase (U/L), upwards, Grade 4 (single dose 1.8 mg fasted): 0 n (%)
- lab toxicity: Glucose (mmol/L), upwards, Grade 1 (single dose 1.8 mg fasted): 0 n (%)
- lab toxicity: Glucose (mmol/L), upwards, Grade 2 (single dose 1.8 mg fasted): 0 n (%)
- lab toxicity: LDL cholesterol (mmol/L, calculated), upwards, Grade 1 (single dose 1.8 mg fasted): 0 n (%)
- lab toxicity: LDL cholesterol (mmol/L, calculated), upwards, Grade 2 (single dose 1.8 mg fasted): 0 n (%)
- lab toxicity: LDL cholesterol (mmol/L, calculated), upwards, Grade 3 (single dose 1.8 mg fasted): 0 n (%)
- lab toxicity: Lymphocytes (giga/L), downwards, Grade 2 (single dose 1.8 mg fasted): 0 n (%)
- lab toxicity: Lymphocytes (giga/L), downwards, Grade 4 (single dose 1.8 mg fasted): 2 (33.3%) n (%)
- lab toxicity: Neutrophils, segmented (giga/L), downwards, Grade 1 (single dose 1.8 mg fasted): 0 n (%)
- lab toxicity: Neutrophils, segmented (giga/L), downwards, Grade 2 (single dose 1.8 mg fasted): 1 (16.7%) n (%)
- lab toxicity: Platelets (giga/L), downwards, Grade 1 (single dose 1.8 mg fasted): 2 (33.3%) n (%)
- lab toxicity: Sodium (mmol/L), upwards, Grade 1 (single dose 1.8 mg fasted): 2 (33.3%) n (%)
- lab toxicity: Sodium (mmol/L), upwards, Grade 2 (single dose 1.8 mg fasted): 1 (16.7%) n (%)
- lab toxicity: Triglycerides (mmol/L), upwards, Grade 1 (single dose 1.8 mg fasted): 5 (83.3%) n (%)
- lab toxicity: Triglycerides (mmol/L), upwards, Grade 2 (single dose 1.8 mg fasted): 0 n (%)
- lab toxicity: Triglycerides (mmol/L), upwards, Grade 3 (single dose 1.8 mg fasted): 1 (16.7%) n (%)
- lab toxicity: Urate (μmol/L), upwards, Grade 1 (single dose 1.8 mg fasted): 1 (16.7%) n (%)
- subjects with at least one AE (single dose 1.8 mg fasted): 5 (83.3%) n (%)
- subjects with at least one AE for which any study drug or study was permanently stopped (single dose 1.8 mg fasted): 0 n (%)
- subjects with at least one AE for which any study drug or study was temporarily stopped (single dose 1.8 mg fasted): 0 n (%)
- subjects with at least one AE possibly related to any study drug (single dose 1.8 mg fasted): 1 (16.7%) n (%)
- subjects with at least one AE possibly, probably or very likely related to any study drug (single dose 1.8 mg fasted): 2 (33.3%) n (%)
- subjects with at least one AE probably related to any study drug (single dose 1.8 mg fasted): 2 (33.3%) n (%)
- subjects with at least one SAE (single dose 1.8 mg fasted): 0 n (%)
- subjects with at least one fatal AE (single dose 1.8 mg fasted): 0 n (%)
- subjects with at least one grade 1 AE (single dose 1.8 mg fasted): 3 (50.0%) n (%)
- subjects with at least one grade 2 AE (single dose 1.8 mg fasted): 2 (33.3%) n (%)
- subjects with at least one grade 3 or 4 AE (single dose 1.8 mg fasted): 0 n (%)
- subjects with fever and flu-like symptoms (flu-like AEs and lymphopenia) (single dose 1.8 mg fasted): 2 and 2/6
- subjects with high VLDL cholesterol levels (non-graded) (single dose 1.8 mg fasted): 4 (66.7%) n (%)
- subjects with high values for segmented neutrophils/leukocytes (non-graded) (single dose 1.8 mg fasted): 4 (66.7%) n (%)
- treatment-related AE: Any AE (single dose 1.8 mg fasted): 2 (33.3%) n (%)
- treatment-related AE: Chills (single dose 1.8 mg fasted): 2 (33.3%) n (%)
- treatment-related AE: Dizziness (single dose 1.8 mg fasted): 2 (33.3%) n (%)
- treatment-related AE: General disorders and administration site conditions (single dose 1.8 mg fasted): 2 (33.3%) n (%)
- treatment-related AE: Headache (single dose 1.8 mg fasted): 1 (16.7%) n (%)
- treatment-related AE: Hypertension (single dose 1.8 mg fasted): 2 (33.3%) n (%)
- treatment-related AE: Myalgia (single dose 1.8 mg fasted): 1 (16.7%) n (%)
- treatment-related AE: Nervous system disorders (single dose 1.8 mg fasted): 2 (33.3%) n (%)
- treatment-related AE: Oropharyngeal pain (single dose 1.8 mg fasted): 1 (16.7%) n (%)
- treatment-related AE: Pyrexia (single dose 1.8 mg fasted): 2 (33.3%) n (%)
- treatment-related AE: Respiratory, thoracic and mediastinal disorders (single dose 1.8 mg fasted): 1 (16.7%) n (%)
- treatment-related AE: Vascular disorder (single dose 1.8 mg fasted): 2 (33.3%) n (%)
- vital signs: Respiratory rate (brpm) Grade 1 (single dose 1.8 mg fasted): 2 (33.3%) n (%)
- vital signs: Respiratory rate (brpm) Grade 2 (single dose 1.8 mg fasted): 1 (16.7%) n (%)
- vital signs: SaO2 (%) 90% to <95% (single dose 1.8 mg fasted): 0 n (%)
- vital signs: SaO2 (%) 95% to <98% (single dose 1.8 mg fasted): 2 (33.3%) n (%)
- vital signs: Standing DBP (mmHg) Grade 1 (single dose 1.8 mg fasted): 3 (50.0%) n (%)
- vital signs: Standing DBP (mmHg) Grade 2 (single dose 1.8 mg fasted): 1 (16.7%) n (%)
- vital signs: Standing DBP (mmHg) Grade 3 (single dose 1.8 mg fasted): 1 (16.7%) n (%)
- vital signs: Standing DBP (mmHg) Low (single dose 1.8 mg fasted): 0 n (%)
- vital signs: Standing SBP (mmHg) Grade 1 (single dose 1.8 mg fasted): 1 (16.7%) n (%)
- vital signs: Standing SBP (mmHg) Low (single dose 1.8 mg fasted): 0 n (%)
- vital signs: Standing pulse (bpm) High (single dose 1.8 mg fasted): 0 n (%)
- vital signs: Standing pulse (bpm) Low (single dose 1.8 mg fasted): 0 n (%)
- vital signs: Supine DBP (mmHg) Grade 1 (single dose 1.8 mg fasted): 1 (16.7%) n (%)
- vital signs: Supine DBP (mmHg) Low (single dose 1.8 mg fasted): 0 n (%)
- vital signs: Supine SBP (mmHg) Grade 1 (single dose 1.8 mg fasted): 1 (16.7%) n (%)
- vital signs: Supine SBP (mmHg) Grade 2 (single dose 1.8 mg fasted): 1 (16.7%) n (%)
- vital signs: Supine SBP (mmHg) Low (single dose 1.8 mg fasted): 0 n (%)
- vital signs: Supine pulse (bpm) Low (single dose 1.8 mg fasted): 1 (16.7%) n (%)
- ↑ AST Grade 3 (laboratory abnormality) (single dose 1.8 mg fasted): 0 n (%)
- ↑ Amylase Grade 2 (laboratory abnormality) (single dose 1.8 mg fasted): 0 n (%)
- ↑ Cholesterol Grade 2 (laboratory abnormality) (single dose 1.8 mg fasted): 1/5
- ↑ Creatine kinase Grade 2 (laboratory abnormality) (single dose 1.8 mg fasted): 1 n (%)
- ↑ Creatine kinase Grade 4 (laboratory abnormality) (single dose 1.8 mg fasted): 0 n (%)
- ↑ Glucose Grade 2 (laboratory abnormality) (single dose 1.8 mg fasted): 0 n (%)
- ↑ LDL cholesterol Grade 2 (laboratory abnormality) (single dose 1.8 mg fasted): 0 n (%)
- ↑ LDL cholesterol Grade 3 (laboratory abnormality) (single dose 1.8 mg fasted): 0 n (%)
- ↑ Lipase Grade 2 (laboratory abnormality) (single dose 1.8 mg fasted): 1/5
- ↑ Pancreatic amylase Grade 2 (laboratory abnormality) (single dose 1.8 mg fasted): 1/2
- ↑ Potassium Grade 2 (laboratory abnormality) (single dose 1.8 mg fasted): 1/5
- ↑ Sodium Grade 2 (laboratory abnormality) (single dose 1.8 mg fasted): 1 n (%)
- ↑ Triglycerides Grade 2 (laboratory abnormality) (single dose 1.8 mg fasted): 0 n (%)
- ↑ Triglycerides Grade 3 (laboratory abnormality) (single dose 1.8 mg fasted): 1 n (%)
- ↓ Bicarbonate Grade 2 (laboratory abnormality) (single dose 1.8 mg fasted): 1 n (%)
- ↓ GFR Grade 2 (laboratory abnormality) (single dose 1.8 mg fasted): 0 n (%)
- ↓ Lymphocytes Grade 2 (laboratory abnormality) (single dose 1.8 mg fasted): 0 n (%)
- ↓ Lymphocytes Grade 4 (laboratory abnormality) (single dose 1.8 mg fasted): 2 n (%)
- ↓ Neutrophils Grade 2 (laboratory abnormality) (single dose 1.8 mg fasted): 1 n (%)
- ↓ Phosphate Grade 2 (laboratory abnormality) (single dose 1.8 mg fasted): 0 n (%)
- lab toxicity: GFR from creatinine adjusted for BSA (mL/s/1.73m^2), downwards, Grade 2 (single dose 1.8 mg fasted, n = 1 with data): 0 n (%)
- safety and tolerability (single oral doses of 0.2-1.8 mg): well tolerated with no major safety concerns; also recorded: generally considered safe and well tolerated
